Reference: PubChem BioAssay AID256 (DTP/NCI, 2004)
Where “and” joins values, the source holds several entries; their conditions need not be identical. Equal values may be shown once. Toxic doses and inconclusive results are not listed. How the source made its calls: active means survival T/C of 150% or more; inactive means T/C below 125% in these data.

Tested on: CD2F1 mice, L1210 leukemia ip, survival T/C
Assay: NCI In Vivo Anticancer Drug Screen. Data for tumor model L1210 Leukemia (intraperitoneal) in CD2F1 (CDF1) mice
Conditions: higher = longer survival
Method in brief: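 Transplantable tumor in mice; compound-treated vs vehicle-treated groups. Read-out = treated/control ratio of the measured endpoint.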

[1] = endpoint: mean survival time, dose: 12.5 mg/kg/injection, schedule: Q01DX009 (ip), vehicle: saline
[2] = endpoint: mean survival time, dose: 25.0 mg/kg/injection, schedule: Q01DX009 (ip), vehicle: saline
[3] = endpoint: mean survival time, dose: 50.0 mg/kg/injection, schedule: Q01DX009 (ip), vehicle: saline
[4] = endpoint: mean survival time, dose: 100.0 mg/kg/injection, schedule: Q01DX001 (ip), vehicle: saline with Tween-80
[5] = endpoint: mean survival time, dose: 200.0 mg/kg/injection, schedule: Q01DX001 (ip), vehicle: saline with Tween-80
[6] = endpoint: mean survival time, dose: 400.0 mg/kg/injection, schedule: Q01DX001 (ip), vehicle: saline with Tween-80
[7] = endpoint: mean survival time, dose: 100.0 mg/kg/injection, schedule: Q01DX009 (ip), vehicle: saline with Tween-80
[8] = endpoint: mean survival time, dose: 100.0 mg/kg/injection, schedule: Q04DX003 (ip), vehicle: saline with Tween-80
[9] = endpoint: mean survival time, dose: 200.0 mg/kg/injection, schedule: Q01DX009 (ip), vehicle: saline with Tween-80
[10] = endpoint: mean survival time, dose: 200.0 mg/kg/injection, schedule: Q04DX003 (ip), vehicle: saline with Tween-80
[11] = endpoint: mean survival time, dose: 400.0 mg/kg/injection, schedule: Q01DX009 (ip), vehicle: saline with Tween-80
[12] = endpoint: mean survival time, dose: 400.0 mg/kg/injection, schedule: Q04DX003 (ip), vehicle: saline with Tween-80
[13] = endpoint: mean survival time, dose: 50.0 mg/kg/injection, schedule: Q01DX009 (ip), vehicle: saline with Tween-80
[14] = endpoint: mean survival time, dose: 100.0 mg/kg/injection, schedule: Q01DX001 (ip), vehicle: saline
[15] = endpoint: mean survival time, dose: 200.0 mg/kg/injection, schedule: Q01DX001 (ip), vehicle: saline
[16] = endpoint: mean survival time, dose: 400.0 mg/kg/injection, schedule: Q01DX001 (ip), vehicle: saline
[17] = endpoint: mean survival time, dose: 25.0 mg/kg/injection, schedule: Q04DX002 (ip), vehicle: saline with Tween-80
[18] = endpoint: mean survival time, dose: 25.0 mg/kg/injection, schedule: Q01DX009 (ip), vehicle: saline with Tween-80

Measured: T/C

Oc1ccccc1C=NCC[N-]CCN=Cc1ccccc1O.[Co]
inactive: [1] 115 % of control | endpoint: mean survival time, dose: 12.5 mg/kg/injection, schedule: Q04DX003 (ip), vehicle: saline 107 % of control | [2] 103 % of control | endpoint: mean survival time, dose: 25.0 mg/kg/injection, schedule: Q04DX003 (ip), vehicle: saline 100 % of control | [3] 97 % of control | endpoint: mean survival time, dose: 50.0 mg/kg/injection, schedule: Q04DX003 (ip), vehicle: saline 103 % of control | endpoint: mean survival time, dose: 100.0 mg/kg/injection, schedule: Q04DX003 (ip), vehicle: saline 107 % of control

CC(=O)Nc1c(F)c(F)c(F)c(F)c1F
inactive: [4] 102 % of control | [5] 95 % of control | [6] 94 % of control

O=C(OCC1OC(n2nc(N3CCOCC3)c(=O)[nH]c2=O)C(OC(=O)c2ccccc2)C1OC(=O)c1ccccc1)c1ccccc1 (configuration not stated)
inactive: endpoint: mean survival time, dose: 12.5 mg/kg/injection, schedule: Q01DX005 (ip), vehicle: distilled water + Tween-80 98 % of control | endpoint: mean survival time, dose: 25.0 mg/kg/injection, schedule: Q01DX005 (ip), vehicle: distilled water + Tween-80 103 % of control | endpoint: mean survival time, dose: 50.0 mg/kg/injection, schedule: Q01DX005 (ip), vehicle: distilled water + Tween-80 92 % of control

Cc1cc(O)c(Br)c(C)c1Br
inactive: [7] 111 % of control | [8] 104 % of control | [9] 98 % of control | [10] 97 % of control | [11] 106 % of control | [12] 101 % of control

O=C(/C=C/c1ccccc1)SCc1ccccc1
inactive: [8] 96 % of control | [10] 98 % of control | [12] 94 % of control

CC(N)(CC(=O)O)C(=O)O (configuration not stated)
inactive: endpoint: mean survival time, dose: 100.0 mg/kg/injection, schedule: Q01DX009 (ip), vehicle: saline sonified 97 % of control | [8] 92 % of control | endpoint: mean survival time, dose: 200.0 mg/kg/injection, schedule: Q01DX009 (ip), vehicle: saline sonified 95 % of control | [10] 97 % of control | endpoint: mean survival time, dose: 400.0 mg/kg/injection, schedule: Q01DX009 (ip), vehicle: saline sonified 96 % of control | [12] 91 % of control

O=C1C(=O)c2cccnc2C(NCc2ccccc2)=C1Cl
inactive: endpoint: mean survival time, dose: 75.0 mg/kg/injection, schedule: Q04DX003 (ip), vehicle: saline 98 % of control | endpoint: mean survival time, dose: 150.0 mg/kg/injection, schedule: Q04DX003 (ip), vehicle: saline 101 % of control | endpoint: mean survival time, dose: 300.0 mg/kg/injection, schedule: Q04DX003 (ip), vehicle: saline 96 % of control

COc1ccccc1NC(=O)Nc1cccc(Cl)c1
inactive: [7] 95 % of control | [8] 94 % of control | [9] 93 % of control | [10] 97 % of control | [11] 88 % of control | [12] 86 % of control

CCCCN(CCCC)C1=C(Cl)C(=O)c2ccccc2C1=O
inactive: endpoint: mean survival time, dose: 25.0 mg/kg/injection, schedule: Q04DX003 (ip), vehicle: saline with Tween-80 98 % of control | endpoint: mean survival time, dose: 50.0 mg/kg/injection, schedule: Q04DX003 (ip), vehicle: saline with Tween-80 98 % of control | [8] 91 % of control

CCC(=O)c1cc([N+](=O)[O-])ccc1N
inactive: [8] 95 % of control | [10] 95 % of control

C#CCOCCBr
inactive: endpoint: mean survival time, dose: 50.0 mg/kg/injection, schedule: Q01DX009 (ip), vehicle: acetone 94 % of control | endpoint: mean survival time, dose: 100.0 mg/kg/injection, schedule: Q01DX009 (ip), vehicle: acetone 100 % of control | endpoint: mean survival time, dose: 200.0 mg/kg/injection, schedule: Q01DX009 (ip), vehicle: acetone 103 % of control

Clc1nc2ccccc2c2ccccc12
inactive: [13] 97 % of control | [7] 94 % of control | [8] 109 % of control | [9] 92 % of control | [10] 111 % of control

O=S(=O)(Cc1cc(-c2ccccc2)n[nH]1)c1ccccc1
inactive: [14] 96 % of control | [15] 95 % of control | [16] 98 % of control

Cc1cccc(Cl)c1NC(=O)CS
inactive: [8] 98 % of control | [10] 98 % of control | [12] 98 % of control

CC(C)CC(CC(C)C)C(=O)C1C2CCC(O2)C1C(=O)C(CC(C)C)CC(C)C (configuration not stated)
inactive: [17] 88 % of control

c1ccc(C[n+]2ccccc2)cc1
inactive: [1] 100 % of control | [2] 100 % of control | [13] 100 % of control | [3] 106 % of control

C=CCNc1nc2c(s1)CCc1cc(OC)c(OC)cc1-2
inactive: endpoint: mean survival time, dose: 12.5 mg/kg/injection, schedule: Q01DX009 (ip), vehicle: saline with Tween-80 92 % of control and 97 % of control | [18] 95 % of control and 101 % of control | [13] 97 % of control and 98 % of control | [7] 97 % of control and 101 % of control | [9] 97 % of control and 101 % of control | [11] 106 % of control

CC(=O)C1=C(C)NC(C)=C(C(C)=O)C1c1ccccc1
inactive: [7] 103 % of control | [9] 107 % of control | [11] 107 % of control

C=C1CCCCCCCCCCC1O (configuration not stated)
inactive: [8] 91 % of control | [10] 95 % of control | [12] 91 % of control

CCC1(c2ccc(O)cc2)C(=O)NC(=O)NC1=O
inactive: [14] 96 % of control | [15] 89 % of control | [16] 96 % of control

O=C(Nc1ccccc1C(F)(F)F)OCCOc1ccccc1Cl
inactive: endpoint: mean survival time, dose: 100.0 mg/kg/injection, schedule: Q01DX009 (ip), vehicle: Klucel (hydroxypropylcellulose) (HPC) 103 % of control | endpoint: mean survival time, dose: 400.0 mg/kg/injection, schedule: Q01DX009 (ip), vehicle: Klucel (hydroxypropylcellulose) (HPC) 89 % of control

CC1=CC(C(=O)O)P(C)(=O)C1 (configuration not stated)
inactive: [18] 101 % of control | [17] 100 % of control | [13] 101 % of control | endpoint: mean survival time, dose: 50.0 mg/kg/injection, schedule: Q04DX002 (ip), vehicle: saline with Tween-80 91 % of control | [7] 104 % of control | endpoint: mean survival time, dose: 100.0 mg/kg/injection, schedule: Q04DX002 (ip), vehicle: saline with Tween-80 95 % of control

Nc1ccc(-c2nc(N)[nH]c(=O)c2N)cc1
inactive: [4] 96 % of control | [5] 92 % of control | [6] 88 % of control

O=C1c2c(O)cccc2-c2nn(CCNCCO)c3ccc(NCCNCCO)c1c23
active: endpoint: median survival time, dose: 1.38 mg/kg/injection, schedule: Q01DX009 (ip), vehicle: water 170 % of control | endpoint: median survival time, dose: 2.75 mg/kg/injection, schedule: Q01DX009 (ip), vehicle: water 240 % of control and 370 % of control | endpoint: median survival time, dose: 5.5 mg/kg/injection, schedule: Q01DX009 (ip), vehicle: water 222 % of control and 361 % of control
inactive: endpoint: median survival time, dose: 11.0 mg/kg/injection, schedule: Q01DX009 (ip), vehicle: water 101 % of control and 107 % of control | endpoint: median survival time, dose: 22.0 mg/kg/injection, schedule: Q01DX009 (ip), vehicle: water 87 % of control

CCCCCCCCCCC(CCCCCCCCCC)Cc1ccccc1
inactive: [14] 98 % of control | [15] 98 % of control | [16] 93 % of control

CC(CN1CC(=O)NC(=O)C1)N1CC(=O)NC(=O)C1 (configuration not stated)
inactive: endpoint: mean survival time, dose: 4.0 mg/kg/injection, schedule: Q01DX009 (ip), vehicle: saline 112 % of control | endpoint: mean survival time, dose: 8.0 mg/kg/injection, schedule: Q01DX009 (ip), vehicle: saline 123 % of control | endpoint: mean survival time, dose: 32.0 mg/kg/injection, schedule: Q04DX003 (ip), vehicle: saline 117 % of control | endpoint: mean survival time, dose: 50.0 mg/kg/injection, schedule: Q01DX001 (ip), vehicle: saline 96 % of control | endpoint: mean survival time, dose: 64.0 mg/kg/injection, schedule: Q01DX009 (ip), vehicle: saline 124 % of control | endpoint: mean survival time, dose: 128.0 mg/kg/injection, schedule: Q01DX009 (ip), vehicle: saline 104 % of control | endpoint: median survival time, dose: 500.0 mg/kg/injection, schedule: Q04DX003 (ip), vehicle: Klucel (hydroxypropylcellulose) (HPC) 122 % of control
active: endpoint: mean survival time, dose: 32.0 mg/kg/injection, schedule: Q01DX009 (ip), vehicle: saline 158 % of control | endpoint: mean survival time, dose: 256.0 mg/kg/injection, schedule: Q04DX003 (ip), vehicle: saline 196 % of control | endpoint: mean survival time, dose: 512.0 mg/kg/injection, schedule: Q04DX003 (ip), vehicle: saline 251 % of control | endpoint: median survival time, dose: 180.0 mg/kg/injection, schedule: Q04DX003 (ip), vehicle: Klucel (hydroxypropylcellulose) (HPC) 169 % of control and 170 % of control | endpoint: median survival time, dose: 300.0 mg/kg/injection, schedule: Q04DX003 (ip), vehicle: Klucel (hydroxypropylcellulose) (HPC) 236 % of control
